This note sets out measurements from PMC6278306, “Anti-Leishmanial and Cytotoxic Activities of a Series of Maleimides: Synthesis, Biological Evaluation and Structure-Activity Relationship” (Molecules, 2018).

SMILES strings stand for the structures. Converted amounts (≈) assume the structure as drawn.

For data set [1], the system named is L. donovani promastigotes. As to the kind of experiment: In vitro anti-leishmanial assay (Alamar blue, promastigotes). In kind it is cell-based, Leishmania donovani. Particulars: for IC50: Leishmania donovani, 48 h, read-out: L. donvani IC50; for SI: SI = CC50 /IC50, THP1 vs promastigotes. Here is the method: Anti-leishmanial activity in vitro was described in terms of IC50, which is the effective concentration (μg/mL) required to achieve 50% growth inhibition, with promastigotes in their exponential growth phase.
In vitro anti-leishmanial assay. The antileishmanial activity of the compounds was tested in vitro against a culture of L. donovani promastigotes. The promastigotes were grown in RPMI 1640 medium supplemented with 10% fetal calf serum (Gibco Chem. Co., 81 Wyman Street, Waltham, MA, USA) at 26 °C. A three day old culture was diluted to 5 × 10^5 promastigotes/mL. Drug dilutions were prepared directly in cell suspension in 96-well plates. Plates were incubated at 26 °C for 48 h and the growth of Leishmania promastigotes was determined by the Alamar blue assay as described earlier. Standard fluorescence was measured on a Fluostar Galaxy plate reader (BMG Lab Technologies, Offenburg, Germany) at an excitation wavelength of 544 nm and an emission wavelength of 590 nm. […] IC50 values were computed from dose-response curves as above. The tested compounds were diluted with six concentrations (from 40–0.0128 μg/mL). Cytotoxicity assay. The in vitro cytotoxicity was determined against human monocytic leukemia cells (THP1) with a simple colorimetric method using the dye Alamar Blue. […] Cells were grown to a density between 0.2 and 1 × 10^6 cells/mL. Culture medium was replaced every 2–3 days with fresh growth medium. DMSO was used as the solvent, and the test compounds was with six concentrations from 10–0.0032 μg/mL.
In general terms: The colour change of resazurin is a common sign of viable cells or microbes.

A short description of data set [2]: Cytotoxicity assay (Alamar Blue). In kind it is cell-based. Particulars: human, concentrations 10–0.0032 μg/mL. Here is the method: In order to verify the safety of maleimides, they were tested for cytotoxicity against human monocytic leukemia cells (THP1) 50% cytotoxic concentration values represent the concentration of compound required to kill 50% of the THP1 cells were calculated (CC50). The selectivity indices were calculated using the formula SI = CC50 /IC50, against promastigotes. […] SIs of 16 and 42 were greater than 781.3.
In vitro anti-leishmanial assay. The antileishmanial activity of the compounds was tested in vitro against a culture of L. donovani promastigotes. The promastigotes were grown in RPMI 1640 medium supplemented with 10% fetal calf serum (Gibco Chem. Co., 81 Wyman Street, Waltham, MA, USA) at 26 °C. A three day old culture was diluted to 5 × 10^5 promastigotes/mL. Drug dilutions were prepared directly in cell suspension in 96-well plates. Plates were incubated at 26 °C for 48 h and the growth of Leishmania promastigotes was determined by the Alamar blue assay as described earlier. Standard fluorescence was measured on a Fluostar Galaxy plate reader (BMG Lab Technologies, Offenburg, Germany) at an excitation wavelength of 544 nm and an emission wavelength of 590 nm. Pentamidine and amphotericin B were used as the standard anti-leishmanial agents. IC50 values were computed from dose-response curves as above. The tested compounds were diluted with six concentrations (from 40–0.0128 μg/mL). Cytotoxicity assay. The in vitro cytotoxicity was determined against human monocytic leukemia cells (THP1) with a simple colorimetric method using the dye Alamar Blue. […] Cells were grown to a density between 0.2 and 1 × 10^6 cells/mL. Culture medium was replaced every 2–3 days with fresh growth medium. DMSO was used as the solvent, and the test compounds was with six concentrations from 10–0.0032 μg/mL.
The in vitro cytotoxicity was determined against human monocytic leukemia cells (THP1) with a simple colorimetric method using the dye Alamar Blue, which was reported in the reference (Mikus, J.; Steverding, D. A simple colorimetric method to screen drug cytotoxicity against Leishmania, using the dye Alamar Blue. Parasitol Int. 2000, 48(3),265-269.). THP1 suspensions were grown in RPMI-1640 medium supplemented with 10% FBS, 2 mM glutamine, 50 μg/mL […]
were grown to a density between 0.2 and 1×10^6 cells/mL. Culture medium was replaced every 2-3 days with fresh growth medium. DMSO was used as the solvent, and the test compounds was with six concentrations from 10-0.0032μg/mL.

Setting [3] is: THP1 cells (human monocytic leukemia).

A word on the IC50: it is the concentration needed to halve the response being measured. The term CC50 denotes the concentration that lowers cell viability or growth by half. A higher CC50 goes with better tolerance by the cells. For `CCCCN1C(=O)C=CC1=O` [Compound 1], in data set [1], the IC50 was 0.08 µg/mL (≈ 0.522 µM) and the SI is given as >125.0. For the same compound, in data set [2] (setting [3]), the CC50 is > 10 µg/mL.
The like results for `CCCCCN1C(=O)C=CC1=O` [Compound 2] were, in that order, 0.36 µg/mL (≈ 2.15 µM), >27.8 and > 10 µg/mL.
The like results for `CCCCCCN1C(=O)C=CC1=O` [Compound 3] were, in that order, 0.11 µg/mL (≈ 0.607 µM), >90.9 and > 10 µg/mL.
For `CCCCCCCCN1C(=O)C=CC1=O` [Compound 4] the same measures were 0.27 µg/mL (≈ 1.29 µM), >37.0 and > 10 µg/mL.
As to `CCCCCCCCCCCCN1C(=O)C=CC1=O` [Compound 5], in data set [1], the IC50 is 2.21 µg/mL (≈ 8.33 µM) and the SI was >4.5. Also, in data set [2] (setting [3]), the CC50 was > 10 µg/mL.
The like results for `O=C1C=CC(=O)N1Cc1ccccc1` [Compound 6] were, in that order, 0.08 µg/mL (≈ 0.427 µM), 57.0 and 4.56 µg/mL (≈ 24.4 µM).
For `O=C1C=CC(=O)N1CCc1ccccc1` [Compound 7] the same measures were 0.1 µg/mL (≈ 0.497 µM), 41.3 and 4.13 µg/mL (≈ 20.5 µM).
The like results for `O=C1C=CC(=O)N1CCCc1ccccc1` [Compound 8] were, in that order, 0.11 µg/mL (≈ 0.511 µM), 75.0 and 8.25 µg/mL (≈ 38.3 µM).
As for `O=C1C=CC(=O)N1c1ccccc1` [Compound 9], in data set [1], the IC50 is 0.24 µg/mL (≈ 1.39 µM) and the SI is on record as >41.7. Further, the CC50 in data set [2] (setting [3]) is > 10 µg/mL.
The like results for `Cc1ccc(N2C(=O)C=CC2=O)cc1` [Compound 10] were, in that order, 0.15 µg/mL (≈ 0.801 µM), >66.7 and > 10 µg/mL.
The like results for `O=C1C=CC(=O)N1c1ccc(F)cc1` [Compound 11] were, in that order, 0.32 µg/mL (≈ 1.67 µM), >31.3 and > 10 µg/mL.
The like results for `O=C1C=CC(=O)N1c1ccc(Cl)cc1` [Compound 12] were, in that order, 1.02 µg/mL (≈ 4.91 µM), >9.8 and > 10 µg/mL.
Usually melting point stands for the temperature of the solid-liquid transition. As for `Cc1cccc(C)c1N1C(=O)C=CC1=O` [Compound 13], the melting point is 188.8 to 190.4 °C. In data set [1], the half-inhibitory concentration (IC50) turned out to be 0.1 µg/mL (≈ 0.497 µM) and the SI came out at 36.5. Moreover, in data set [2] (setting [3]), the CC50 is 3.65 µg/mL (≈ 18.1 µM).
`CCc1cccc(CC)c1N1C(=O)C=CC1=O` [Compound 14]: the melting point lay in the range of 192.8 to 194.1 °C. Also, in data set [1], the IC50 turned out to be 0.08 µg/mL (≈ 0.349 µM) and the SI came out at 48.6. The CC50 in data set [2] (setting [3]) worked out at 3.89 µg/mL (≈ 17 µM).
`O=C1C=CC(=O)N1c1cc(F)c(F)c(F)c1` [Compound 15] had a melting point of 153.4 to 165.6 °C. Further, the IC50 in data set [1] was 0.21 µg/mL (≈ 0.925 µM). For the same compound, in data set [2] (setting [3]), the CC50 is > 10 µg/mL.
With `CC(C)CN1C(=O)C=CC1=O` [Compound 16], the melting point fell in the range of 52.8 to 53.9 °C. In addition, the “anti-leishmanial activity, times better than amphotericin B” value in data set [1] (L. donovani, relative to amphotericin B) is 10. The IC50 in data set [1] is < 0.0128 µg/mL. Moreover, the CC50 in data set [2] (setting [3]) was > 10 µg/mL.
As for `O=C1C=CC(=O)N1C1CCCCC1` [Compound 17], in data set [1], the IC50 came out at 0.26 µg/mL (≈ 1.45 µM) and the SI is reported as >38.5. Besides, in data set [2] (setting [3]), the CC50 was > 10 µg/mL.
For `CCCCCN1C(=O)C=C(C)C1=O` [Compound 18] the same measures were 0.58 µg/mL (≈ 3.2 µM), 13.2 and 7.64 µg/mL (≈ 42.2 µM).
Regarding `CCCCCCN1C(=O)C=C(C)C1=O` [Compound 19], in data set [1], the IC50 worked out at 0.81 µg/mL (≈ 4.15 µM) and the SI came to 7.3. Also, it took 5.89 µg/mL (≈ 30.2 µM) to reach half-maximal cytotoxicity in data set [2] (setting [3]) (CC50).
The like results for `CCCCCCCCN1C(=O)C=C(C)C1=O` [Compound 20] were, in that order, 0.96 µg/mL (≈ 4.3 µM), 8.4 and 8.1 µg/mL (≈ 36.3 µM).
For `CC1=CC(=O)N(Cc2ccccc2)C1=O` [Compound 21] the same measures were 0.58 µg/mL (≈ 2.88 µM), 13.7 and 7.94 µg/mL (≈ 39.5 µM).
For `CC1=CC(=O)N(CCc2ccccc2)C1=O` [Compound 22] the same measures were 1.22 µg/mL (≈ 5.67 µM), 4.9 and 5.99 µg/mL (≈ 27.8 µM).
On to `CC1=CC(=O)N(c2c(C)cccc2C)C1=O` [Compound 23], for which the melting point was 190.8 to 192 °C. In addition, in data set [1], the IC50 was determined as 13.2 µg/mL (≈ 61.2 µM) and the SI is >0.8. In addition, the CC50 in data set [2] (setting [3]) was > 10 µg/mL.
The like results for `CCc1cccc(CC)c1N1C(=O)C=C(C)C1=O` [Compound 24] were, in that order, 195.8 to 197.3 °C, 0.55 µg/mL (≈ 2.26 µM), 8.0 and 4.39 µg/mL (≈ 18 µM).
In the case of `CC1=CC(=O)N(c2cc(Cl)cc(Cl)c2)C1=O` [Compound 25], the melting point is 170.8 to 173.2 °C. In data set [1], the concentration for half-maximal inhibition (IC50) turned out to be 0.34 µg/mL (≈ 1.33 µM) and the SI is 2.4. Further, half-maximal cytotoxicity in data set [2] (THP1 cells) (CC50) was put at 0.8 µg/mL (≈ 3.12 µM).
For the compound `CC1=CC(=O)N(CC(C)C)C1=O` [Compound 26], in data set [1], the IC50 worked out at 0.64 µg/mL (≈ 3.83 µM) and the SI is >15.6. Also, the CC50 in data set [2] (setting [3]) is > 10 µg/mL.
As to `CC1=CC(=O)N(C2CCCCC2)C1=O` [Compound 27], the melting point lay in the range of 65.6 to 66.5 °C. For the same compound, in data set [1], the IC50 was found to be 0.89 µg/mL (≈ 4.61 µM) and the SI was determined as 8.0. The compound further returned a CC50 in data set [2] (setting [3]) of 7.15 µg/mL (≈ 37 µM).
Turning to `CCCCN1C(=O)C(Cl)=C(Cl)C1=O` [Compound 28], in data set [1], the IC50 turned out to be 0.47 µg/mL (≈ 2.12 µM) and the SI was >21.3. For the same compound, the CC50 in data set [2] (THP1 cells) is > 10 µg/mL.
The like results for `CCCCCN1C(=O)C(Cl)=C(Cl)C1=O` [Compound 29] were, in that order, 0.65 µg/mL (≈ 2.75 µM), >15.4 and > 10 µg/mL.
For `CCCCCCN1C(=O)C(Cl)=C(Cl)C1=O` [Compound 30] the same measures were 0.49 µg/mL (≈ 1.96 µM), >20.4 and > 10 µg/mL.
The like results for `CCCCCCCCN1C(=O)C(Cl)=C(Cl)C1=O` [Compound 31] were, in that order, 0.48 µg/mL (≈ 1.73 µM), >20.8 and > 10 µg/mL.
In the case of `O=C1C(Cl)=C(Cl)C(=O)N1CCc1ccccc1` [Compound 32], in data set [1], the IC50 amounted to 1.64 µg/mL (≈ 6.07 µM) and the SI is >6.1. For the same compound, the CC50 in data set [2] (THP1 cells) was > 10 µg/mL.
Regarding `O=C1C(Cl)=C(Cl)C(=O)N1CCCc1ccccc1` [Compound 33], in data set [1], the IC50 amounted to 0.4 µg/mL (≈ 1.41 µM) and the SI is given as >25.0. Further, the CC50 in data set [2] (setting [3]) is > 10 µg/mL.
In the case of `O=C1C(Cl)=C(Cl)C(=O)N1c1ccccc1` [Compound 34], in data set [1], the IC50 is 0.76 µg/mL (≈ 3.14 µM) and the SI was >13.2. The CC50 in data set [2] (THP1 cells) is > 10 µg/mL.
The like results for `Cc1ccc(N2C(=O)C(Cl)=C(Cl)C2=O)cc1` [Compound 35] were, in that order, 0.66 µg/mL (≈ 2.58 µM), >15.2 and > 10 µg/mL.
For `O=C1C(Cl)=C(Cl)C(=O)N1c1ccc(F)cc1` [Compound 36], in data set [1], the IC50 came out at 0.36 µg/mL (≈ 1.38 µM) and the SI is listed as >27.8. Besides, the CC50 in data set [2] (setting [3]) was > 10 µg/mL.
Take `O=C1C(Cl)=C(Cl)C(=O)N1c1ccc(Cl)cc1` [Compound 37]: in data set [1], the IC50 came to 0.59 µg/mL (≈ 2.13 µM) and the SI is >16.9. The CC50 in data set [2] (THP1 cells) is > 10 µg/mL.
For `O=C1C(Cl)=C(Cl)C(=O)N1c1cc(Cl)cc(Cl)c1` [Compound 43] the same measures were 0.99 µg/mL (≈ 3.18 µM), >10.1 and > 10 µg/mL.
For `N=C(N)c1ccc(OCCCCCOc2ccc(C(=N)N)cc2)cc1` [pentamidine, reference compound], the IC50 in data set [1] was determined as 0.64 µg/mL (≈ 1.88 µM).
